Results taken from patent publication US20140335203A1, “SYNERGISTIC BLENDS OF ANTIMICROBIALS USEFUL FOR CONTROLLING MICROORGANISMS IN INDUSTRIAL PROCESSES” (Hercules Incorporated, priority 2013, published 2014).
Values joined by “and” are separate entries in the source; they are usually repeats but may differ in a detail not shown here. Identical values can stand only once. Like-named read-outs stand apart in the source and are kept apart here.

Tests used:
Lactobacillus plantarum [1] = experiment: Minimal Inhibitory Concentration (MIC), two-fold dilution series in 96 well microplate, antimicrobial used alone; type: cell-based; conditions: pH 6; for MIC: Lactiplantibacillus plantarum
From the text: While there are various methods known to individuals skilled in the art for measuring levels of antimicrobial activity, in the following examples the endpoint used is known as the Minimal Inhibitory Concentration, or MIC. This is the lowest concentration of a substance or substances which can achieve complete inhibition of growth.
In order to determine the Minimal Inhibitory Concentration, a two-fold dilution series of the antimicrobial is constructed with the dilutions being made in growth media. The dilutions are made in a 96 well microplate such that each well has a final volume of 280 μl of media and antimicrobial. […] After the dilution series is constructed the wells receive an inoculum of microbe suspended in growth media such that the final concentration of microbes in the well is ˜5×10^5 cfu/ml. In these examples the test microbe used is Lactobacillus plantarum. The cultures are incubated at an appropriate temperature for 18-24 hours, and the wells scored as positive or negative for growth based on a visual examination for turbid wells. A turbid well indicates growth has occurred.
Minimal inhibitory concentrations were determined for both chlorine dioxide and citric acid at pH 6 using the protocol described above with Lactobacillus plantarum as the test microbe. Checkerboard synergy plates were constructed as described, the wells inoculated to a final concentration of ˜5×10^5 cfu/ml, incubated for 18-24 hours, and then scored visually for growth/no growth. […] Minimal inhibitory concentrations were determined for both chlorine dioxide and sodium propionate at pH 6 using the protocol described above with Lactobacillus plantarum as the test microbe. Checkerboard synergy plates wore constructed as described, the wells inoculated to a final concentration of ˜5×10^5 cfu/ml, incubated for 18-24 hours, and then scored visually for growth/no growth.
(§1) Minimal inhibitory concentrations were determined for both chlorine dioxide and potassium benzoate at pH 6 using the protocol described above with Lactobacillus plantarum as the test microbe. Checkerboard synergy plates were constructed as described, the wells inoculated to a final concentration of ˜5×10^5 cfu/ml, incubated for 18-24 hours, and then scored visually for growth/no growth.
as §1, with “ascorbic acid” for “potassium benzoate”

Lactobacillus plantarum [2] = experiment: Checkerboard synergy plates (MIC in combination, Synergy Index by Kull et al.); type: cell-based; conditions: pH 6
Method: Minimal inhibitory concentrations were determined for both chlorine dioxide and citric acid at pH 6 using the protocol described above with Lactobacillus plantarum as the test microbe. Checkerboard synergy plates were constructed as described, the wells inoculated to a final concentration of ˜5×10^5 cfu/ml, incubated for 18-24 hours, and then scored visually for growth/no growth. […] Minimal inhibitory concentrations were determined for both chlorine dioxide and sodium propionate at pH 6 using the protocol described above with Lactobacillus plantarum as the test microbe. Checkerboard synergy plates wore constructed as described, the wells inoculated to a final concentration of ˜5×10^5 cfu/ml, incubated for 18-24 hours, and then scored visually for growth/no growth. […] Minimal inhibitory concentrations were determined for both chlorine dioxide and potassium benzoate at pH 6 using the protocol described above with Lactobacillus plantarum as the test microbe. Checkerboard synergy plates were constructed as described, the wells inoculated to a final concentration of ˜5×10^5 cfu/ml, incubated for 18-24 hours, and then scored visually for growth/no growth. […] Minimal inhibitory concentrations were determined for both chlorine dioxide and ascorbic acid at pH 6 using the protocol described above with Lactobacillus plantarum as the test microbe. […]

Weisella confusa = conditions: cited from earlier work
fermentation = conditions: cited from earlier work

With `O=C1O[C@H]([C@@H](O)CO)C(O)=C1O` [Ascorbic Acid, ascorbic acid] the MIC (Lactobacillus plantarum [1]; read-out: Ascorbic Acid MIC (QB), used alone) was 10 mg/mL.

With `O=C(O)CC(O)(CC(=O)O)C(=O)O` [Citric Acid, citric acid] the “Citric Acid MIC (Qb), used in combination” value (Lactobacillus plantarum [2]; in combination with ClO2) was 390-12,500 ppm, the MIC (Lactobacillus plantarum [1]; read-out: Citric Acid MIC (QB), used alone) was 100 mg/mL and the “Citric Acid MIC (QB), used alone” value (Lactobacillus plantarum [1]) was 100000 ppm.

For `[O][Cl+][O-]` [ClO2, chlorine dioxide], the “ClO2 MIC (Qa), used in combination” value (Lactobacillus plantarum [2]; in combination with citric acid) was 15-60 ppm, the “ClO2 MIC (QA), used alone” value (Lactobacillus plantarum [1]; Table 1 (citric acid series)) was 100 ppm and the “ClO2 MIC (QA), used alone” value (Lactobacillus plantarum [1]; Table 2 (sodium propionate series)) was 115 ppm. The “ClO2 MIC (QA), used alone” value (Lactobacillus plantarum [1]; Table 3 (potassium benzoate series)) was 115 ppm and 130 ppm, the “ClO2 MIC (QA), used alone” value (Lactobacillus plantarum [1]; Table 3 (potassium benzoate series), listed as chlorine dioxide) was 115 ppm and 130 ppm and the “ClO2 MIC (QA), used alone” value (Lactobacillus plantarum [1]; Table 4 (ascorbic acid series)) was 67.5 ppm.

In the case of `O=C([O-])c1ccccc1.[K+]` [Potassium Benzoate, potassium benzoate], the “Potassium Benzoate MIC (QB), used alone” value (Lactobacillus plantarum [1]) is reported as 100000 ppm and the “Potassium Benzoate MIC (QB), used alone” value (Lactobacillus plantarum [1]; listed as potassium benzoate) is reported as 100,000 ppm.

With `CCC(=O)[O-].[Na+]` [Sodium Propionate, sodium propionate] the “Sodium Propionate MIC (QB), used alone” value (Lactobacillus plantarum [1]) was 100000 ppm and the “Sodium Propionate MIC (QB), used alone” value (Lactobacillus plantarum [1]; listed as sodium propionate) was 100,000 ppm.

In the case of Virginiamycin, the “concentration required to inhibit growth of Weisella confusa” value (Weisella confusa) is given as “over 25 mg/L” and the “concentration that will suppress fermentation” value (fermentation) is given as “over 2 mg/L”.
